From patent US6156700A, “3-(1,2-Benzisothiazol- and isoxazol-5-yl)-2,4(1H,3H)-pyrimidinedione or thione and 3-(1,2-benzisothiazol- and isoxazol-5-yl)-4(3H)-pyrimidinone or thione herbicidal agents” (American Cyanmid Company, priority 1998, dated 2000)

Columns and labels:
Conditions in all cases: 0.0630 kg/ha
Galium, Galium aparine = test: Postemergence herbicidal evaluation, GALAP; format: in vivo
Summary of the method: (§1)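 Greenhouse postemergence test. Seedlings about two weeks old sprayed (40 psi) with compound in 50/50 acetone/water, 0.5% TWEEN 20, at rates near 0.0157–0.500 kg/ha; rated 0–9 by eye at 4–5 weeks.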

[1] = tested on: Rice, Tebonnet, Oryza sativa; test: Postemergence herbicidal evaluation, ORYSAT; format: in vivo, (L.) Tebonnet
Summary of the method: as §1

[2] = tested on: Sicklepod, Cassia obtusifolia; test: Postemergence herbicidal evaluation, CASOB; format: in vivo, L.
Summary of the method: as §1

[3] = tested on: Ragweed, Common, Ambrosia artemisifolia; test: Postemergence herbicidal evaluation, AMBEL; format: in vivo, L.
Summary of the method: as §1

[4] = tested on: Foxtail, Green, Setaria viridis; test: Postemergence herbicidal evaluation, SETVI; format: in vivo, (L.) Beau
Summary of the method: as §1

[5] = tested on: Wheat, Winter, cv Riband, Triticum aestivum; test: Postemergence herbicidal evaluation, TRZAWR; format: in vivo
Summary of the method: as §1

[6] = tested on: Velvetleaf, Abutilon theophrasti; test: Postemergence herbicidal evaluation, ABUTH; format: in vivo, Medic.
Summary of the method: as §1

[7] = tested on: Soybean, Williams, Glycine max; test: Postemergence herbicidal evaluation, GLXMAW; format: in vivo, (L.) Merr. cv Williams
Summary of the method: as §1

[8] = tested on: Barnyardgrass, Echinochloa crus-galli; test: Postemergence herbicidal evaluation, ECHCG; format: in vivo, (L.) Beau
Summary of the method: as §1

[9] = tested on: Lambsquarters, Common, Chenopodium album; test: Postemergence herbicidal evaluation, CHEAL; format: in vivo, L.
Summary of the method: as §1

[10] = tested on: Morningglory, Ivyleaf, Ipomoea hederacea; test: Postemergence herbicidal evaluation, IPOHE; format: in vivo, (L.) Jacq.
Summary of the method: as §1

Corn, Field, Zea mays = test: Postemergence herbicidal evaluation, ZEAMX; format: in vivo, L.
Summary of the method: as §1

Compound	herbicide rating (0-9) (Galium, Galium aparine)	herbicide rating (0-9) [1]	herbicide rating (0-9) [2]	herbicide rating (0-9) [3]	herbicide rating (0-9) [4]	herbicide rating (0-9) [5]	herbicide rating (0-9) [6]	herbicide rating (0-9) [7]	herbicide rating (0-9) [8]	herbicide rating (0-9) [9]	herbicide rating (0-9) [10]	herbicide rating (0-9) (Corn, Field, Zea mays)
Cc1ccc(OCC(=O)OCCCl)c(-c2nsc3ccc(-n4c(=O)cc(C(F)(F)F)n(C)c4=O)cc23)c1 [Compound 71, 2-Chloroethyl {{2-{5-[3,6-dihydro-3-methyl-2,6-dioxo-4-(trifluoromethyl)-1(2H)-pyrimidinyl]-1,2-benzisothiazol-3-yl}-p-tolyl}oxy}acetate]	9.0	8.0	9.0	9.0	9.0	9.0	9.0	9.0	9.0	9.0	9.0	8.5
COCc1nsc2ccc(-n3c(=O)cc(C(F)(F)F)n(C)c3=O)cc12 [Compound 31, 3-[3-(Methoxymethyl)-1,2-benzisothiazol-5-yl]-1-methyl-6-(trifluoromethyl)-2,4 (1H,3H)-pyrimidinedione]	8.0	3.0	9.0	9.0	9.0	3.0	9.0	9.0	4.0	9.0	9.0	6.0
Cc1ccc(OCC(=O)OCCN(C)C)c(-c2nsc3ccc(-n4c(=O)cc(C(F)(F)F)n(C)c4=O)cc23)c1 [Compound 70, 2-(Dimethylamino)ethyl {{2-[5-[3,6-dihydro-3-methyl-2,6-dioxo-4-(trifluoromethyl)-1(2H)-pyrimidinyl]-1,2-benzisothiazol-3-yl}-p-tolyl}oxy}acetate]	5.0	3.0	9.0	9.0	9.0	5.0	9.0	8.0	9.0	9.0	9.0	6.0
Cc1ccc(OCC(=O)OC(C)C(C)(C)C)c(-c2nsc3ccc(-n4c(=O)cc(C(F)(F)F)n(C)c4=O)cc23)c1 (stereo not drawn) [Compound 85, 1,2,2-Trimethylpropyl {{2-{5-[3,6-dihydro-3-methyl-2,6-dioxo-4-(trifluoromethyl)-1(2H)-pyrimidinyl]-1,2-benzisothiazol-3-yl}-p-tolyl}oxy}acetate]	5.0	5.0	2.0	2.0	8.0	5.5	5.0	7.0	7.0	5.0	9.0	6.5
CC#CC(C)OC(=O)COc1ccc(C)cc1-c1nsc2ccc(-n3c(=O)cc(C(F)(F)F)n(C)c3=O)cc12 (stereo not drawn) [Compound 76, 1-Methyl-2-butynyl {{2-{5-[3,6-dihydro-3-methyl-2,6-dioxo-4-(trifluoromethyl)-1(2H)-pyrimidinyl]-1,2-benzisothiazol-3-yl}-p-tolyl}oxy}acetate]	9.0	6.0	9.0	9.0	9.0	9.0	9.0	9.0	9.0	9.0	9.0	8.0
